Measured values published in patent US20150182667A1, “Composition with Biofilm Dispersal Agents” (Vanderbilt University, priority 2012, published 2015).
Like-named read-outs stand apart in the source and are kept apart here.

How the values were obtained:
[1] = tested on: S. aureus clinical isolates biofilms; assay: Biofilm dispersal and prevention, crystal violet assay (Example 3); assay type: cell-based
Method: Like in Example 1, biofilm formation was assessed under static conditions using polystyrene 96-well plates (Corning, Inc.). Overnight bacterial cultures were diluted to an OD600 of 0.1 in TSB (˜10^7 CFU/mL), and 20 μL were added to individual wells filled with 180 μL of media and incubated at 37° C. for 48 h. To assess the biofilm dispersal activity of D-AAs, the culture medium from biofilms was removed after 48 h and 200 μL fresh medium containing either an individual D-AA or an equimolar mixture of D-AAs (1:1:1: D-Met:D-Pro:D-Trp) were added at the indicated concentrations. After treatment with D-AA(s) for 24 h, plates were gently washed with 1× phosphate buffered saline (PBS) to remove unattached cells, stained with 0.1% (w/v) crystal violet (Sigma Aldrich) for 10 min, rinsed with PBS, and then solubilized with 80% (v/v) ethanol. Biofilm biomass was determined by measuring the absorbance of solubilized stain at 570 nm using a microtiter plate reader. For assays measuring the ability of D-AA to block biofilm formation, cells were grown under biofilm conditions as above in the presence of media containing D-AAs. Representative images of the plates of CV-stained biofilms following treatment with D-AA prior to solubilization were taken using a digital camera. All assays were repeated in triplicate with a minimum of four technical replicates.

[2] = Release of D-AAs from PUR scaffolds in PBS (HPLC); assay type: physicochemical
Method: Also, kinetic release assays were performed on the PUR scaffolds by incorporating 10 wt % of a 1:1:1 mixture of D-Tr:D-Pro:D-Met incubated in PBS for up to 8 weeks. The medium was be sampled twice weekly and analyzed for D-AAs by HPLC.
PUR scaffolds incorporating 10 wt % of a 1:1:1 mixture of D-Met:D-Pro:D-Trp were incubated in PBS at 37° C. under static conditions for up to 8 weeks. This mixture was evaluated in vitro, in vivo and in the release kinetics tests to account for potential interactions between D-AAs during release. The medium was sampled on days 1, 2, 4, 7, 10, 14, 21, and 28 and analyzed for D-AAs by HPLC using a system equipped with a Waters 1525 binary pump and a 2487 Dual-Absorbance Detector at 200 nm. Samples of released D-AAs were eluted through an Atlantis HILIC Silica column (5 μm particle size, 4.6 mm diameter×250 mm length) using an isocratic mobile phase flowing at 1 mL/min. The mobile phase contained 2.5 mM potassium dihydrogen phosphate with pH=2.85 (A) and Acetonitrile (B) at a ratio of A25:B75. The column oven temperature was maintained at 30° C. Sample concentration was determined in reference to an external standard curve using the Waters Breeze system. Standard curves were prepared in the following concentration ranges: (1) 7.8 μg/mL to 1 mg/mL for D-Met and D-Pro and (2) […] to 100 μg/mL for D-Trp.

[3] = tested on: P. aeruginosa clinical isolate biofilms; assay: Biofilm dispersal and prevention, crystal violet 96-well assay (Example 1); assay type: cell-based, Pseudomonas aeruginosa; conditions: 5 mM
Method: (§1) Biofilm formation was performed under static conditions in polystyrene 96-well plates (Corning, Inc., Corning, N.Y.). Briefly, overnight bacterial cultures were diluted to an OD600 of 0.1 in CA-MHB and 10 μL was added to individual wells filled with 190 μl of media and incubated at 37° C. for 48 h without shaking for biofilm growth. Following incubation, culture media was removed and 200 μL media containing individual D-AA at concentrations of 5 mM-1 nM was added. Plates were incubated for an additional 24 h at 37° C. After treatment, plates were gently washed with 1× phosphate buffered saline (PBS; pH 7.4) to remove non-adherent bacteria. Biofilms (i.e. attached cells) were then stained with 0.1% (w/v) crystal violet for 10 min, washed, followed by solubilization of crystal violet with 33% (v/v) acetic acid for 10 min. Biofilm biomass was determined by measuring the absorbance at 570 nm using a microtiter plate reader. For assays measuring the ability of D-AA to block biofilm formation, cells were grown under biofilm conditions as above in the presence of media containing D-AA. Three independent experiments with a minimum of 4 replicates were performed for each experimental assay. Representative images of the plates of CV stained biofilms following treatment with D-AA, prior to solubilization, were taken using a digital camera.

[4] = tested on: S. aureus clinical isolate biofilms; assay: as above; assay type: cell-based, Staphylococcus aureus; conditions: 5 mM
Method: as §1

[5] = tested on: planktonic S. aureus clinical strains (UAMS-1, 103-700); assay: MIC by CLSI broth microdilution, planktonic bacteria; assay type: cell-based, Staphylococcus aureus; conditions: for MIC: Staphylococcus aureus, 18 h
Method: Overnight cultures of bacterial strains were diluted to a final concentration of 5×10^5 CFU/ml in MHB-II. The resulting bacterial suspension was aliquoted (100 μL) into polystyrene round-bottom 96-well plates containing 100 μL of a 2× concentration of a previously serially diluted (1:2) antibiotic. Each antimicrobial tested was serially diluted 10 times. Following the addition of bacteria, the microtiter plate was covered and was incubated under stationary conditions at 37° C. in the presence of 1× antibiotics. […] MICs of antibiotics were determined in triplicate according to the Clinical and Laboratory Standards Institute (CLSI) broth microdilution as described by the performance standards for antimicrobial susceptibility testing (M100-S22, January 2012).

[6] = tested on: biofilm derived S. aureus clinical strains (UAMS-1, 103-700); assay: Biofilm susceptibility, Calgary Biofilm device (MBEC plates): MBIC and viable CFU; assay type: cell-based, Staphylococcus aureus; conditions: for Biofilm (MBIC) 103-700: S. aureus 103-700 48 h biofilm; for Biofilm (MBIC) 103-700 / Biofilm (MBIC) UAMS-1: 24 h challenge, * = with 5 mM D-AA; for Biofilm (MBIC) UAMS-1: S. aureus UAMS-1 48 h biofilm; for % Decrease + SD in CFU, 8 μg/mL / % Decrease + SD in CFU, 16 μg/mL / % Decrease + SD in CFU, 32 μg/mL / % Decrease + SD in CFU, 64 μg/mL: S. aureus UAMS-1 biofilm; for % Decrease + SD in CFU, 8 μg/mL: antibiotic 8 μg/mL; for % Decrease + SD in CFU, 16 μg/mL: antibiotic 16 μg/mL; for % Decrease + SD in CFU, 32 μg/mL: antibiotic 32 μg/mL; for % Decrease + SD in CFU, 64 μg/mL: antibiotic 64 μg/mL, vs non-treated biofilms; for effect of the antimicrobial against biofilms when combined with the D-AA mixture: S. aureus biofilms, both strains, bacterial CFUs within biofilms
Method: Biofilm susceptibility to antimicrobial agents in the presence and absence of D-AA was determined using the Calgary Biofilm device. Briefly, biofilms from overnight cultures were established as above on individual pegs of the minimum biofilm eradication concentration (MBEC) plates (Innovotech, Canada) with agitation for 48 h at 37° C. Following incubation, the lid with pegs was removed from the incubation plate, washed by re-suspending pegs into plate with wells containing 200 μl of 1×PBS, then placed into a 96-well challenge plate containing pre-diluted antibiotics with or without an […] for an additional 24 h at 37° C. Following challenge plates were washed, and the attached viable cells on PEGs within the biofilm were determined by plating serial dilutions onto blood agar plates (Remel). Corresponding minimal biofilm inhibitory concentration (MBIC) was also determined by measuring the optical density in individual wells of the challenge plate at 600 nm. The lowest concentration of antibiotic for which an optical density of <0.100 was recorded as the MBIC. For each antibiotic, the MBIC was determined in the presence or absence of a mixture of D-AA (D-Phenylalanine, D-Methionine, and D-Tryptophan) at an equimolar concentration of 5 mM. Three independent experiments were performed for each of these assays, with a minimum of 3 replicates.

[7] = S. aureus 103-700, agents marked * in combination with equimolar 5 mM D-AA
[8] = S. aureus 103-700, agents marked * in combination with equimolar 5 mM D-AA, read-out: Planktonic (MIC) 103-700
[9] = S. aureus UAMS-1, agents marked * in combination with equimolar 5 mM D-Phenylalanine, D-Tryptophan, D-Methionine, read-out: Planktonic (MIC) UAMS-1

Row | Structure (SMILES) | dispersal of established biofilms (biofilm biomass) ([1]; panel of clinical isolates of methicillin-resistant S. aureus (n=5), 5 mM, 24 h, FIGS. 8A, 8C) | biofilm dispersal in pre-screening of eight individual D-AAs ([1]; pre-formed biofilms of four clinical isolates, 0.001-50 mM, FIG. 7) | cumulative release by day 28 ([2]; PUR scaffold with 10 wt % D-AA mixture, PBS 37° C.) | burst release ([2]; day 1, PUR scaffold with 10 wt % 1:1:1 D-Met:D-Pro:D-Trp, PBS 37° C.) | b parameter of Weibull model ([2]; fit of D-AA release data) | biofilm dispersal against panel of clinical isolates (biofilm biomass OD570) ([3]; P. aeruginosa clinical isolates, FIGS. 3A, 3C) | biofilm dispersal in pre-screening of eight D-AAs ([3]; pre-formed P. aeruginosa biofilms, FIG. 1) | biofilm dispersal against panel of clinical isolates (biofilm biomass OD570) ([4]; S. aureus clinical isolates, FIGS. 3A, 3C) | biofilm dispersal in pre-screening of eight D-AAs ([4]; pre-formed S. aureus biofilms, FIG. 1) | Planktonic (MIC) 103-700 [5, 7] | MIC [5, 8] | MIC [5, 9] | Biofilm (MBIC) 103-700 [6] | Biofilm (MBIC) UAMS-1 [6] | % Decrease + SD in CFU, 8 μg/mL [6] | % Decrease + SD in CFU, 16 μg/mL [6] | % Decrease + SD in CFU, 32 μg/mL [6] | % Decrease + SD in CFU, 64 μg/mL [6] | effect of the antimicrobial against biofilms when combined with the D-AA mixture [6] | Planktonic (MIC) UAMS-1 ([5]; S. aureus UAMS-1, agents marked * in combination with equimolar 5 mM D-Phenylalanine, D-Tryptophan, D-Methionine)
1 | O=C(O)[C@H]1CCCN1 [D-Pro, D-proline] | effective at dispersing established biofilms | effective at dispersing biofilms | 85% | 45% | 0.35 | capable of significantly dispersing biofilm formation | relatively more effective at dispersing biofilms | capable of significantly dispersing biofilm formation | relatively more effective at dispersing biofilms | – | – | – | – | – | – | – | – | – | – | –
2 | Cc1onc(-c2ccccc2)c1C(=O)N[C@@H]1C(=O)N2[C@@H]1SC(C)(C)[C@@H]2C(=O)O [OXA, Oxacillin] | – | – | – | – | – | – | – | – | – | 8 µg/mL | 8 µg/mL | 1 µg/mL | >64 µg/mL | >64 µg/mL | – | – | – | – | – | –
3 | CO[C@H]1/C=C/O[C@@]2(C)Oc3c(C)c(O)c4c(O)c(c(/C=N/N5CCN(C)CC5)c(O)c4c3C2=O)NC(=O)/C(C)=C\C=C\[C@H](C)[C@H](O)[C@@H](C)[C@@H](O)[C@@H](C)[C@H](OC(C)=O)[C@@H]1C [RIF, Rifampin] | – | – | – | – | – | – | – | – | – | – | 0.5 µg/mL | 0.5 µg/mL | 32 µg/mL | 32 µg/mL | 16.87 ± 2.9% | 34.31 ± 5.4% | 70.70 ± 4.3% | 67.36 ± 1.2% | enhanced the effect | –
4 | CN[C@H](CC(C)C)C(=O)N[C@H]1C(=O)N[C@@H](CC(N)=O)C(=O)N[C@H]2C(=O)N[C@H]3C(=O)N[C@H](C(=O)N[C@H](C(=O)O)c4cc(O)cc(O)c4-c4cc3ccc4O)[C@H](O)c3ccc(c(Cl)c3)Oc3cc2cc(c3O[C@@H]2O[C@H](CO)[C@@H](O)[C@H](O)[C@H]2O[C@H]2C[C@](C)(N)[C@H](O)[C@H](C)O2)Oc2ccc(cc2Cl)[C@H]1O [VAN, Vancomycin] | – | – | – | – | – | – | – | – | – | 1 µg/mL | – | – | >64 µg/mL | >64 µg/mL | 1.5 ± 5.7% | 15.93 ± 6.2% | 31.90 ± 7.1% | 65.97 ± 5.3% | enhanced the effect | 0.5 µg/mL
